# Columns and labels:
# SUM159 cells = assay: Actin polymerization and ruffling/lamellipodia formation after PDGF; type: cell-based, human; details: SUM159, concentration-dependent
# Experimental: In one set of experiments, the ability of PITs to inhibit actin polymerization and ruffling/lamellipodia formation was examined in SUM159 cells. Cells were serum starved and treated with PITs (25, 50 100 μM) or PIT-1 is (100 μM) for 8 hr, followed by PDGF (100 ng/ml) stimulation for 15 min. Cells were fixed and stained with TRITC-phalloidin to visualize actin fibers, followed by fluorescent microscopy analysis. The number of cells with ruffles/lamellipodia was counted in five random fields.
# [1] = molecular target: PH domain of Akt (His6-Akt123) (Homo sapiens (Human), UniProt P31749); assay: NMR 2D HSQC binding analysis
# PH domain of Akt (His6-Akt123), sequence (P31749 1-123): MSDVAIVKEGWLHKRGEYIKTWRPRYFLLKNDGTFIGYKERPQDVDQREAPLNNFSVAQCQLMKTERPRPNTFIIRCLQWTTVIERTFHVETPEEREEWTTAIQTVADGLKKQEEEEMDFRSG
# Experimental: To further characterize the mode of action of PIT-1, NMR-based analyses of PIT-1 binding to the PH domain of Akt were performed. […] PIT-1 was further titrated to identify residues primarily affected by the small molecule binding. Using published Akt2 HSQC peak assignments (Auguin D et al. (2004) J Biomol NMR 28:137-55), it was observed that the residues Trp22 (W22), Tyr26 (Y26), and Asn54 (N54), located in the PIP3 binding pocket of the Akt PH domain, are primarily affected by PIT-1. Changes in other crosspeak signals were observed only at the 2× access of PIT-1.
# U87MG cells = assay: Cell death with pan-caspase inhibitor zVAD.fmk, Sytox assay; type: cell-based, human; details: 100 μM zVAD.fmk
# Experimental: FIG. 11 is a bar graph depicting that cell death triggered by PIT-1 alone or in combination with TRAIL is inhibited by pan-caspase inhibitor zVAD.fmk. U87MG cells were incubated with or without 100 μM zVAD.fmk together with PIT-1 (25, 50, 100 μM) in the presence or absence of 10 ng/ml TRAIL for 24 hr, and analyzed by Sytox cell death assay.
# Since PI3K/PIP3/Akt signaling plays a critical role in the inhibition of apoptosis (Datta S R et al. (1999) Genes Dev 13:2905-27), the possibility that PITs induce apoptosis was examined. […] Proapoptotic Bcl-2 family members Bax and Bak are important mediators of apoptosis. Wei M C et al. (2001) Science 292:727-30. […] Non-apoptotic mechanisms of cell death may also play some additional, albeit less important, role in PIT-induced killing, as some cell death was still observed in Bax/Bak-deficient cells and in the presence of zVAD.fmk.
# [2] = Cell death under glucose/glutamine deprivation; type: cell-based
# [3] = tested on: Bax/Bak double knockout cells; assay: Cell killing in Bax/Bak double knockout versus wild-type cells; type: cell-based, mouse
# Experimental: Human and mouse cancer cell lines (U87MG, SUM159, A549, MDA-MB-231, 4T1, B16-F10) and human umbilical vein endothelial cells (HUVEC) were purchased from the American Type Culture Collection (Rockville, Md., USA). Mouse adult lung fibroblasts (Akt-deficient and Akt1-expressing) were a generous gift of Dr. Philip Tsichlis (Tufts University). Maroulakou I et al. (2007) Cancer Res 67:167-77. Bax/Bak double knockout mouse embryonic fibroblasts (Wei M C et al. (2001) Science 292:727-30) and matched wild-type cells were a generous gift of Dr. Stanley Korsmeyer (Dana-Farber Cancer Center). B16-F10, U87MG, 4T1, A549, MDA-MB-231 and fibroblast cells were cultured in DMEM medium with 10% fetal bovine serum (FBS). SUM159 was maintained in Ham's F-12 medium with 5% FBS, 5 μg/ml insulin, and 1 μg/ml hydrocortisone. HUVEC cells were cultured in M199 medium with 20% FBS, 20 μg/ml ECGS, and 50 μg/ml heparin. All media were supplemented with 100 units/ml penicillin, 100 μg/ml streptomycin, and 2 mM glutamine. All cells were cultured in a humidified atmosphere of 95% air and 5% CO2 at 37° C.
# Since PI3K/PIP3/Akt signaling plays a critical role in the inhibition of apoptosis (Datta S R et al. (1999) Genes Dev 13:2905-27), the possibility that PITs induce apoptosis was examined. […] Proapoptotic Bcl-2 family members Bax and Bak are important mediators of apoptosis. Wei M C et al. (2001) Science 292:727-30. […]
# PLC-δ PH domain = PLC-δ PH domain (Homo sapiens (Human), UniProt P51178); assay: PH domain translocation assay (GFP fusion); type: cell-based
# PLC-δ PH domain, sequence (P51178 21-130): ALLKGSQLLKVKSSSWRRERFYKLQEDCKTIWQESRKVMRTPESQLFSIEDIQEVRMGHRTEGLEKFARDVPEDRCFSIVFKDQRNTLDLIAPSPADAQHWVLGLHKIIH
# Experimental: Cells were transfected with the corresponding GFP-fusion vectors, serum starved overnight, and incubated with 100 μM PITs or PIT-1 is for 2 hr, followed by stimulation with 100 ng/ml PDGF or 250 ng/ml PMA for 5 min. The translocation was analyzed using fluorescent microscope and was quantitated by counting the number of cells with translocated PH domains in five random fields.
# [4] = tested on: PTEN-deficient U87MG cells; assay: Sytox cell death assay, U87MG re-expressing wild-type or R130M mutant PTEN; type: cell-based, human; details: 25, 50, 100 μM, 48 hr
# Experimental: After treatment with 25, 50, or 100 μM PIT-1 for 48 hr, cell death was analyzed using Sytox cell death assay.
# Based on the critical role of PIP3-dependent […] signaling in the regulation of cell survival, the effect of PIT-1 on the cancer cell viability was tested. Cancer cells were seeded into 96-well plates (white plates for ATP assay; black plates for fluorescent assay; clear plates for MTS assay) at the density of 5-10×10^3 cells per well in 100 μl of the appropriate media. Compounds were added at a series of concentrations and incubated for different times. For the ATP assay, a luminescence-based commercial kit (CellTiter-Glo, Promega, Madison, Wis.) was used. Thirty microliters of cell lysis/ATP detection reagent was added to each well, mixed for 10 min at room temperature, and the luminescence was measured using a Wallac Victor 3 plate reader (Perkin-Elmer, Wellesley, Mass.). […] Twenty microliters of the combined MTS/PMS solution was added into each well, incubated for 4 hr at 37° C., and the absorbance at 490 nm was measured using a Wallac Victor 3 plate reader. For the Sytox cell death assay, measuring loss of plasma membrane integrity, cells were incubated with 1 μM Sytox Green reagent (Molecular Probes, Eugene, Oreg.) for 30 min at 37° C. and the fluorescence intensity was measured using Wallac Victor 3 plate reader with excitation at 485 nm and emission at 545 nm. […]
structure (smiles),measurement,setting,value
O=C(NC(=S)Nc1cc([N+](=O)[O-])cc(Cl)c1O)c1ccccc1 [PIT-1],PDGF-induced membrane ruffling,SUM159 cells,efficiently inhibited
same,changes in 2D HSQC 1H-15N correlation spectrum of His6-Akt123,[1],induces significant changes
same,"cell death, alone or with TRAIL, in presence of zVAD.fmk",U87MG cells,inhibited by a pan-caspase inhibitor zVAD.fmk
same,cell death in combination with glucose/glutamine deprivation,[2],dramatic induction of cell death
same,killing of Bax/Bak double knockout compared with wild-type cells,[3],reduced in Bax/Bak double knockout cells
same,cellular localization of PLC-δ PH domain,PLC-δ PH domain,no inhibitory effect
same,toxicity in U87MG lacking PTEN activity versus wild-type PTEN,[4],more pronounced in PTEN-deficient U87MG cells lacking PTEN activity
